Legend:
[1] = tested on: Human immunodeficiency virus 1; experiment: Antiviral activity against HIV1 LAI activity in phytohemagglutininin-activated human PBMC assessed as viral replication after 7 days; assay type: functional; conditions: for EC50: Human immunodeficiency virus 1, LAI, 168 h, read-out: ED50 (the source's name)
[2] = (§1) Cytotoxicity against phytohemagglutininin-activated human PBMC after 7 days by MTT assay; assay type: cell-based; conditions: phytohemagglutinin-activated PBMC, read-out: CD50
PBMC = experiment: as §1; assay type: cell-based; conditions: pbmc, 168 h

For `CCCCCCCCCCCCCCCC(=O)OCC(COC(=O)CCCCCCCCCCCCCCC)OC(=O)CCCC(=O)OC[C@@H]1CC[C@H](n2cnc3c(=O)[nH]cnc32)O1`, the ED90 [1] was over 12 µM, the EC50 [1] was 2.8 µM and the CC50 at 168 h [2] was over 12 µM. For the same molecule, the CD90 (PBMC) was over 12 µM.
With `CCCCCCCCCCCCCCCC(=O)OCC(COC(=O)CCCCCCCCCCCCCCC)OC(=O)CCCCCOP(=O)(O)OC[C@@H]1CC[C@H](n2cnc3c(=O)[nH]cnc32)O1` the ED90 [1] was over 50 µM, the EC50 [1] was 28.5 µM and the CC50 at 168 h [2] was over 50 µM. It also gave a CD90 (PBMC) of over 50 µM.
Molecule `O=c1[nH]cnc2c1ncn2[C@H]1CC[C@@H](CO)O1` [DIDANOSINE] has an ED90 [1] of 4.8 µM, an EC50 [1] of 1.2 µM and a CC50 at 168 h [2] of 40 µM. The CD90 (PBMC) was over 50 µM.
